These results are taken from US11596692B1 (Incyte Corporation, priority 2018, dated 2023).

Experiment [1] concerns IRF3 activation in PD-L1 high HEK293T STING reporter cell line. As to the kind of experiment: IRF3 activation in HEK293T STING reporter cells, high PD-L1. In kind it is cell-based, human. To be noted: for EC50: 20 hours; for Potency shift: with compound P27 (1 μM) versus no competition. The protocol:
(§1) HEK293T STING reporter cell line was purchased from Invivogen and expressed low level of PD-L1. This cell line was then engineered at Incyte Research Institute to overexpress human PD-L1. Both PD-L1 high and PD-L1 low HEK293T cell lines were plated at 100,000 cells/100 μL/well in 10% fetal calf serum-containing DMEM culture medium in a 96-well flat bottom plate. Serial dilutions of PD-L1 small molecule-conjugated STING agonists were then added to the corresponding wells, and incubated for 20 hours at 37° C. In a competition study setting, 1 μM of a PD-L1 small molecule was added in the corresponding wells to compete with the binding of PD-L1 small molecule-conjugated STING agonists. At the end of the incubation, the culture supernatants were carefully removed from each well, and the amount of IRF3 activation was determined by adding Quanti-Blue substrate in accordance with the manufacturer's protocol.
(§2) 293T-Dual hSTING-R232 (ISG/KI-IFNb) cells that were generated from 293T-Dual Null (ISG/KI-IFNb) cells by stable transfection of the R232 isoform of human STING were purchased from Invivogen (Invivogen #293d-r232).
(§3) This cell line expresses an ISRE-inducible SEAP (secreted embryonic alkaline phosphatase) reporter construct, which monitors the activation of interferon regulatory factor (IRF) and its binding to ISRE (IFN-stimulated response elements). These reporter cells express low level of PD-L1. Human PD-L1 was then overexpressed in these cells through stable transfection.
(§4) These 293T-Dual hSTING-R232 reporter cells as well as293T-Dual hSTING-R232 reporter cells overexpressing huPD-L1 were treated with various concentrations of STING compounds for 20 hours. After 20 hours, interferon regulatory factor (IRF) activity was assessed by measuring SEAP levels in the supernatant using QUNTI-Blue. EC50 values were generated by curve fit in Prism software.

Experiment [2] has as its target T1, PD-L1 (Homo sapiens (Human), UniProt Q9NZQ7). As to the kind of experiment: PD-L1 surface levels on HEK293T STING reporter cells, high PD-L1. In kind it is cell-based. The protocol: To determine PD-L1 expression on HEK cells after treatment of PD-L1-small molecule conjugated STING agonists, cells were harvested at 20 hours post-treatment. Single cell suspensions were then stained with phycoerythrin-conjugated anti-PD-L1 antibody (BD Bioscience), and the PD-L1 expression were then analyzed by flow cytometry. Mean fluorescence intensity was used as the relative level of surface PD-L1 expression on cells (FIG. 1 and Table 6).
Also, cells were stained with PE-conjugated anti-human PD-L1 antibody to determine surface PD-L1 expression. Cell acquisition was performed on BD LSRFortessa X-20 (BD Biosciences). Data was analyzed using FlowJo software. IC50 values were calculated using Prism Software.

Experiment [3] deals with IRF3 activation in PD-L1 low HEK293T STING reporter cell line. As to the kind of experiment: IRF3 activation in HEK293T STING reporter cells, low PD-L1. To be noted: 20 hours, read-out: IRF Activation EC50 (nM), Low PD-L1. In kind it is cell-based, human. The protocol: as §1, §2, §3, §4
Experiment [4] has as its target T1, PD-L1. As to the kind of experiment: Indirect whole blood PD-L1 internalization assay. The format is cell-based. To be noted: interferon γ, 18 hours, CD14+ gated. As to the method:
To determine PD-L1 internalization in human whole blood, normal human blood (Biological Specialty Corp, Colmar. Pa.) was incubated in the presence or absence of a concentration range of test compounds and 1 ng/ml human interferon γ (R&D Systems Inc. Minn. Minn.) in a 96 well round bottom plate (Corning, Corning, N.Y.) for 18 hours at 37° C. Blood was then transferred into 96 well “2 ml Assay Block” (Corning, Corning N.Y.) and stained with PD-L1 (MIH1, eBioscience; or BD Biosciences San Jose, Calif.), CD14 (Life Technologies, Carlsbad, Calif.) for 30 minutes in the dark at room temperature. Whole Blood/red cells were lysed/fixed (lysis buffer BD Biosciences) for 5 minutes at 37° C. in dark and then centrifuged at 1600 RPM for 5 minutes and cells were transferred into 96 well round bottom plates (Corning). Cells were gated on CD14+ (BD Biosciences) and PD-L1 expression determined by mean fluorescence intensity (MFI) (BD LSRFortessa™ X-20). IC50 determination was performed by fitting the curve of compound percent inhibition versus the log of the compound concentration using the GraphPad Prism 7.0 software.

Experiment [5] deals with IRF3. As to the kind of experiment: IRF3 activation assay in THP-1 Dual cells. The format is cell-based. As to conditions: Homo sapiens, read-out: THP1 IRF3 EC50. An outline of the steps: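 THP-1 Dual cells (100,000/well) were treated with serially diluted compound for 24 h at 37° C, 5% CO2. IRF3 reporter activity in supernatant was read with QUANTI-Blue as absorbance at 620-655 nm after 2 h, with untreated cells as negative control. EC50 came from fitting percent control activity against log concentration.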

Where [6] appears, read: high PD-L1 cells, read-out: IRF Activation EC50 (nM), High PD-L1.
Where [7] appears, read: no competition, read-out: IRF Activation EC50 (nM), No competition.
[8] abbreviates: read-out: IRF Activation EC50 (nM), With compound P27 (1 μM), competition with compound P27 1 μM.

The structures appear in SMILES notation. pEC50, pIC50: −log10 of the molar value. Read-outs that look alike come from different tables or passages of the source.

T1 sequence (Q9NZQ7 19-290): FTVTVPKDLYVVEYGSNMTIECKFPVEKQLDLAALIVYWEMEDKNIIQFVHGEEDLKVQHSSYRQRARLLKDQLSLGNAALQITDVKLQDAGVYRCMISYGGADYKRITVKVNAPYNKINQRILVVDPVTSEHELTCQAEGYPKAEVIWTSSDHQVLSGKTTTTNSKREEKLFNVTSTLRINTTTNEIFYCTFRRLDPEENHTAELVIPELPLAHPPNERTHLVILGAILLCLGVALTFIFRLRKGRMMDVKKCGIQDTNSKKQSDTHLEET

Take `CCn1nc(C)cc1C(=O)Nc1nc2cc(C(N)=O)cc(OCCCNC(=O)OCCNC(=O)[C@H](CC(=O)O)NC(=O)[C@H](CC(=O)O)NC(=O)[C@H](CCCNC(=N)N)NC(=O)[C@H](CC(=O)O)NC(=O)CCCN3CCc4c(nc(C(=O)Nc5cccc(-c6cccc(NC(=O)c7nc8c(n7C)CCN(CCCC(=O)O)C8)c6Cl)c5Cl)n4C)C3)c2n1C/C=C/Cn1c2nc(-c3cc(C)nn3CC)ncc2c2cc(C(N)=O)cc(OC)c21` [Example 24]: the EC50 in experiment [1] (setting [6]) and in experiment [3] was under 50 nM throughout. The pIC50 (usually −log10 of the IC50, conventionally taken in molar units) in experiment [2] was over 7.30.

For `CCn1nc(C)cc1C(=O)Nc1nc2cc(C(N)=O)cc(OC)c2n1C/C=C/Cn1c(NC(=O)c2cc(C)nn2CC)nc2cc(C(N)=O)cc(OCCCNC(=O)[C@H](CC(=O)O)NC(=O)[C@H](CC(=O)O)NC(=O)CCCN3CCc4c(nc(C(=O)Nc5cccc(-c6cccc(NC(=O)c7nc8c(n7C)CCN(CCCC(=O)O)C8)c6Cl)c5Cl)n4C)C3)c21` [Example 10], the figures for the EC50 in experiment [1] (setting [6]) and in experiment [3] were under 50 nM and 50 to 200 nM, respectively. Also, the IC50 (in general, the concentration at which inhibition is half-maximal) in experiment [2] (high PD-L1 cells, 20 hours, read-out: PD-L1 Internalization IC50 (nM), High PD-L1) is under 50 nM.

Take `CCn1nc(C)cc1C(=O)Nc1nc2cc(C(N)=O)cc(OC)c2n1C/C=C/Cn1c(NC(=O)c2cc(C)nn2CC)nc2cc(C(N)=O)cc(OCCCNC(=O)[C@H](CC(=O)O)NC(=O)[C@H](CC(=O)O)NC(=O)[C@H](CC(=O)O)NC(=O)[C@H](CC(=O)O)NC(=O)CCCN3CCc4c(nc(C(=O)Nc5cccc(-c6cccc(NC(=O)c7nc8c(n7C)CCN(CCCC(=O)O)C8)c6Cl)c5Cl)n4C)C3)c21` [Example 12]: the EC50 (in general, the concentration at which the effect is half-maximal) in experiment [1] (setting [6]) is under 50 nM; in experiment [3], 50 to 200 nM.

The compound `Cc1c(-c2nc3cc(CN4CC[C@H](C(=O)O)C4)cc(C#N)c3o2)cccc1-c1cccc(NC(=O)c2nc3c(n2C)CCN(C)C3)c1Cl` [Example P11] gave a negative logarithm of the IC50 (pIC50) in experiment [4] of over 7.00.

Turning to `CCn1nc(C)cc1C(=O)Nc1nc2cc(C(N)=O)cc(OC)c2n1C/C=C/Cn1c(NC(=O)c2cc(C)nn2CC)nc2cc(C(N)=O)cc(OCCCNC(=O)CCNC(=O)OCc3ccc(NC(=O)[C@H](CCCNC(N)=O)NC(=O)[C@@H](NC(=O)CCCN4CCc5c(nc(C(=O)Nc6cccc(-c7cccc(NC(=O)c8nc9c(n8C)CCN(CCCC(=O)N[C@@H](CC(=O)O)C(=O)O)C9)c7Cl)c6Cl)n5C)C4)C(C)C)cc3)c21` [Example 3], the EC50 in experiment [1] (setting [6]) was under 50 nM; in experiment [1] (setting [7]), under 50 nM; in experiment [1] (setting [8]) it was 200 to 1000 nM; in experiment [3], 200 to 1000 nM. In addition, the Potency shift in experiment [1] is given as over 20.

Turning to `CCn1nc(C)cc1C(=O)Nc1nc2cc(C(N)=O)cc(OC)c2n1C/C=C/Cn1c(NC(=O)c2cc(C)nn2CC)nc2cc(C(N)=O)cc(OCCCNC(=O)CCNC(=O)OCc3ccc(NC(=O)[C@H](CCCNC(N)=O)NC(=O)[C@@H](CC(=O)Cn4cc(CCNC(=O)[C@H](CC(=O)O)NC(=O)[C@H](CC(=O)O)NC(=O)[C@H](CCCNC(=N)N)NC(=O)[C@H](CC(=O)O)NC(=O)CCCN5CCc6c(nc(C(=O)Nc7cccc(-c8cccc(NC(=O)c9nc%10c(n9C)CCN(CCCC(=O)O)C%10)c8Cl)c7Cl)n6C)C5)nn4)C(C)C)cc3)c21` [Example 4], the EC50 in experiment [1] (setting [6]) is under 50 nM; in experiment [1] (setting [7]), under 50 nM; in experiment [1] (setting [8]) it was 200 to 1000 nM; in experiment [3], 200 to 1000 nM. In experiment [1], the Potency shift was over 20.

As for `CCn1nc(C)cc1C(=O)Nc1nc2cc(C(N)=O)cc(OCCO)c2n1C/C=C/Cn1c2nc(-c3cc(C)nn3CC)ncc2c2cc(C(N)=O)cc(OCCCOC)c21` [Example S41, (E)-9-(4-(5-carbamoyl-2-(1-ethyl-3-methyl-1H-pyrazole-5-carboxamido)-7-(2-hydroxyethoxy)-1H-benzo[d]imidazol-1-yl)but-2-en-1-yl)-2-(1-ethyl-3-methyl-1H-pyrazol-5-yl)-8-(3-methoxypropoxy)-9H-pyrimido[4,5-b]indole-6-carboxamide], the pEC50 (commonly the EC50 on a negative log10 scale, so that one unit is a factor of ten) in experiment [5] (THP-1, Table 4C) is at least 7.30.

As for `CCn1nc(C)cc1C(=O)Nc1nc2cc(C(N)=O)cc(OCCCN3CCOCC3)c2n1C/C=C/Cn1c2nc(-c3cc(C)nn3CC)ncc2c2cc(C(N)=O)cc(OCCCOC)c21` [Example S27, (E)-9-(4-(5-carbamoyl-2-(1-ethyl-3-methyl-1H-pyrazole-5-carboxamido)-7-(3-morpholinopropoxy)-1H-benzo [d]imidazol-1-yl)but-2-en-1-yl)-2-(1-ethyl-3-methyl-1H-pyrazol-5-yl)-8-(3-methoxypropoxy)-9H-pyrimido[4,5-b]indole-6-carboxamide], the pEC50 in experiment [5] (THP-1, Table 4A) is at least 7.00; in experiment [5] (THP-1, Table 4B), over 6.70; in experiment [5] (THP-1, Table 4C), at least 7.30.

With `Cc1c(NC(=O)c2ccc(CNCCO)cn2)cccc1-c1cccc(NC(=O)c2ccc(CNCCO)cn2)c1Cl` [Example P7], the pIC50 in experiment [4] is over 7.00.

`CCn1nc(C)cc1C(=O)Nc1nc2cc(C(N)=O)cc(OCCCOC(=O)c3cc(C)nn3CC)c2n1C/C=C/Cn1c2ccc(C(N)=O)cc2c2cnc(-c3cc(C)nn3CC)nc21` [Example S17, (E)-3-((5-carbamoyl-1-(4-(6-carbamoyl-2-(1-ethyl-3-methyl-1H-pyrazol-5-yl)-9H-pyrimido[4,5-b]indol-9-yl)but-2-en-1-yl)-2-(1-ethyl-3-methyl-1H-pyrazole-5-carboxamido)-1H-benzo[d]imidazol-7-yl)oxy)propyl 1-ethyl-3-methyl-1H-pyrazole-5-carboxylate]: the pEC50 in experiment [5] (THP-1, Table 4A) was at least 7.00; in experiment [5] (THP-1, Table 4B), over 6.70; in experiment [5] (THP-1, Table 4C) it was at least 7.30.

For `CCn1nc(C)cc1C(=O)Nc1nc2cc(C(N)=O)c3ccoc3c2n1C/C=C/Cn1c2nc(-c3cc(C)nn3CC)ncc2c2cc(C(N)=O)cc(OCCCOC)c21` [Example S68, (E)-1-(4-(6-carbamoyl-2-(1-ethyl-3-methyl-1H-pyrazol-5-yl)-8-(3-methoxypropoxy)-9H-pyrimido[4,5-b]indol-9-yl)but-2-en-1-yl)-2-(1-ethyl-3-methyl-1H-pyrazole-5-carboxamido)-1H-benzofuro[6,7-d]imidazole-5-carboxamide], in experiment [5] (THP-1, Table 4A), the pEC50 was at least 7.00.

With `CCn1nc(C)cc1C(=O)Nc1nc2cc(C(N)=O)cc(OCCCO)c2n1C/C=C/Cn1c2ccc(C(N)=O)cc2c2cc(F)c(-c3cc(C)nn3CC)nc21` [Example S37, (E)-9-(4-(5-carbamoyl-2-(1-ethyl-3-methyl-1H-pyrazole-5-carboxamido)-7-(3-hydroxypropoxy)-1H-benzo[d]imidazol-1-yl)but-2-en-1-yl)-2-(1-ethyl-3-methyl-1H-pyrazol-5-yl)-3-fluoro-9H-pyrido[2,3-b]indole-6-carboxamide], the pEC50 in experiment [5] (THP-1, Table 4C) is at least 7.30.
